The values that follow come from PubChem BioAssay (NCI).

As usually defined, the GI50 is the concentration at which growth is held to half of that of the control. As a reminder, the TGI is the concentration at which net growth stops. A higher TGI goes with less potent growth arrest.

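Tested at 5 concentrations; 48 h exposure; 96-well plates; endpoints linearly interpolated, else capped at highest concentration. At the GI50, growth is halved. At the TGI there is no net growth.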 Some results are limits rather than exact numbers.

Assay in all cases: DTP human tumour cell line panel, 48 h
The test system of assay [1] is LOX IMVI melanoma.
Assay [2] relates to HCC-2998 colon.
Assay [3] deals with CAKI-1 renal.
Assay [4] relates to 786-0 renal.
In assay [5] the test system is UACC-62 melanoma.
The test system of assay [6] is SF-539 CNS.
Assay [7] deals with MCF7 breast.
Assay [8] has as its system MDA-MB-231 breast.
Assay [9] deals with HOP-92 NSCLC.
The subject of assay [10] is MALME-3M melanoma.

Take `C#CCOc1c(OC)cc(C(=O)/C(C)=C/c2cccc(N=[N+]=[N-])c2)cc1OC`: the GI50 in assay [1] was 0.642 µM; in [2] it was 0.464 µM; in [3], 0.247 µM; in assay [4] it was 0.18 µM; in assay [5] it was 0.253 µM; in assay [6], 0.13 µM. The GI50 in assay [7] was 0.0447 µM; in [8], 0.695 µM; in assay [9], 0.196 µM. Further, the TGI is greater than 100 µM in assay [1]; greater than 100 µM in [2]; greater than 100 µM in assay [3]; greater than 100 µM in [4]; greater than 100 µM in [5]; 0.478 µM in assay [6]. The values for the TGI in assay [7], in assay [8] and in assay [9] were greater than 100 µM, 26.1 µM and 9.11 µM, respectively.

Consider `CCOC(=O)C1=C(N)Oc2cc(OC)ccc2C1c1ccc(F)c(F)c1` (centres undefined), for which the GI50 in assay [1] was 1.36 µM; in assay [2], 4.14 µM; in assay [10], 10.3 µM; in assay [4], 3.45 µM; in [5], 0.558 µM; in assay [6], 2.13 µM. The results for the GI50 in assay [7], in [8] and in assay [9] were 0.452 µM, 2.48 µM and 3.54 µM, respectively. The TGI in assay [1] amounted to 19 µM; in assay [2] it was 18.4 µM; in assay [10] it was 24.1 µM; in assay [4], 16.8 µM; in assay [5], 15.4 µM; in assay [6], 8.3 µM. The results for the TGI in assay [7], in assay [8] and in assay [9] were 18.7 µM, 13.8 µM and 19.4 µM, respectively.

Regarding `CC(=O)O[C@@H]1CC(=O)O[C@@H]2C[C@@H](CC/C(Cl)=C/C/C=C\1C)O[C@@H]2CO`, the GI50 in [1], in [2], in assay [3], in [4], in assay [5] and in [6] was greater than 25 µM in each case. In addition, the GI50 in [7], in assay [8] and in assay [9] was greater than 25 µM throughout. The TGI in [1], in assay [2], in assay [3], in assay [4], in [5] and in [6] was greater than 25 µM in each case. For the same compound, the TGI in assay [7], in assay [8] and in [9] was greater than 25 µM throughout.

With `COc1cc2c(/C=C3/C(=O)Nc4c3ccc3ccccc43)c(Cl)[nH]c2cc1C`, the concentration for 50% growth inhibition (GI50) is 0.00548 µM in [1]; less than 0.005 µM in assay [2]; 0.00894 µM in assay [3]; 0.0598 µM in assay [4]; 0.0119 µM in assay [5]; 0.0106 µM in assay [6]. Also, the 50% growth inhibitory concentration (GI50) in [7] was 0.0342 µM; in assay [8] it was 0.0366 µM. In addition, the total growth inhibition concentration (TGI) in assay [1] was 0.0304 µM; in assay [2] it was less than 0.005 µM; in assay [4], greater than 24.2 µM; in assay [5], greater than 19.8 µM; in assay [6] it was 0.119 µM; in assay [7] it was greater than 50 µM. In assay [9], the TGI was greater than 31.1 µM.

With `COc1ccc2c(c1)N(CCO)C1=C(C(=O)OC1)C2c1cccc(Br)c1` (centres undefined), the GI50 is 0.0814 µM in [1]; 0.184 µM in assay [2]; 0.0395 µM in assay [3]; 0.0536 µM in assay [10]; 0.12 µM in assay [4]; 0.048 µM in assay [5]. Also, the GI50 was 0.0498 µM in assay [6], 0.0391 µM in [7] and 0.372 µM in [8]. In addition, the TGI in assay [1] is 18.8 µM; in assay [2] it was 15.7 µM; in assay [3], 35.6 µM; in assay [10], 85.7 µM; in assay [4], 41.4 µM; in assay [5], 44.5 µM. The TGI in assay [6] was 0.859 µM; in assay [7], greater than 100 µM; in [8], 19.4 µM.

Regarding `COc1ccc(OC)c(/C=C/c2cnnc3ccccc23)c1`, the TGI in assay [1] is greater than 10 µM; in [2], greater than 10 µM; in assay [3] it was greater than 10 µM; in assay [4], greater than 10 µM; in assay [5], greater than 10 µM; in assay [6] it was 8.62 µM. Also, the concentration for total growth inhibition (TGI) in assay [7], in assay [8] and in [9] was greater than 10 µM throughout.

With `O=C(Nc1cc(Cl)cc(Cl)c1)c1ccc(NC2=C(Cl)C(=O)N(Cc3ccccc3)C2=O)cc1`, the GI50 in assay [1] was 2.21 µM; in assay [3] it was 0.799 µM; in assay [10], 14.6 µM; in assay [4], 2.87 µM; in [5], 4.13 µM; in [6], 3.5 µM. For the same compound, the results for the GI50 in assay [7] and in assay [8] were 1.29 µM and 5.74 µM, respectively. Also, the total growth inhibition concentration (TGI) turned out to be 5.86 µM in [1]; 2.98 µM in assay [3]; 30.4 µM in assay [10]; 8.74 µM in assay [4]; 16.7 µM in assay [5]; 13.7 µM in assay [6]. Besides, the TGI in assay [7] amounted to 4.86 µM; in assay [8], 22.4 µM.

In the case of `COc1ccc(C2SC(C)C(=O)N2NC(=O)C(O)c2ccccc2)cc1` (centres undefined), the GI50 in [1], in [2], in assay [3], in assay [4], in assay [5] and in assay [6] was greater than 100 µM throughout. Also, the GI50 in assay [7], in [8] and in [9] was greater than 100 µM throughout. Moreover, the concentration for total growth inhibition (TGI) in assay [1], in assay [2], in assay [3], in assay [4], in [5] and in [6] was greater than 100 µM in each case. The total growth inhibition concentration (TGI) in assay [7], in assay [8] and in [9] was greater than 100 µM each time.

As for `CNC(=S)N/N=C(/C)CCC/C(C)=N/NC(=S)NC`, the TGI was 44.2 µM in [1]; greater than 100 µM in [3]; greater than 100 µM in assay [10]; greater than 100 µM in assay [4]; greater than 100 µM in assay [5]; greater than 100 µM in assay [6]. For the same compound, the TGI in assay [7] is 0.563 µM; in assay [8], greater than 100 µM; in [9], greater than 100 µM.

In the case of `Cn1cc(-c2nc(-c3cn(C)c4ncccc34)cs2)c2cc(F)ccc21`, the GI50 was 1.15 µM in [1]; 0.962 µM in assay [2]; 0.776 µM in assay [3]; 2.57 µM in assay [4]; 1.33 µM in [5]; 1.8 µM in assay [6]. The GI50 in assay [7] was 0.528 µM; in assay [8], 3.01 µM; in assay [9], 2.31 µM. The concentration for total growth inhibition (TGI) in [1] was 5.69 µM; in [2], 24.2 µM; in assay [3], 11.9 µM; in assay [4], 12.8 µM; in assay [5] it was greater than 100 µM; in [6], 5.28 µM. In addition, the values for the TGI in assay [7], in assay [8] and in assay [9] were 60.5 µM, 22.2 µM and 8.14 µM, respectively.

With `COc1ccc2c(c1)CC[C@@H]1[C@@H]2CC[C@]2(C)c3c(cc(C(=O)c4ccccc4)c4sccc34)C[C@@H]12`, the GI50 in assay [1], in assay [2], in assay [3], in [10], in assay [4] and in assay [5] was greater than 100 µM throughout. Besides, the GI50 in [6], in assay [7] and in assay [8] was greater than 100 µM each time. In addition, the TGI in [1], in assay [2], in [3], in assay [10], in assay [4] and in assay [5] was greater than 100 µM each time. The TGI in assay [6], in assay [7] and in assay [8] was greater than 100 µM throughout.

`O=S(=O)(c1ccccc1)C1CN(Cc2ccccc2)CCN(Cc2ccccc2)C1`: the TGI is greater than 61.5 µM in assay [1]; greater than 100 µM in assay [2]; 98.9 µM in assay [3]; greater than 86.3 µM in assay [10]; greater than 100 µM in assay [4]; greater than 68.1 µM in [5]. For the same compound, the TGI in [6], in assay [7] and in assay [8] was greater than 100 µM throughout.

For the compound `NNc1nc(-c2ccccn2)nc2sc3c(c12)CCCCCC3`, the GI50 in assay [1] was 6.17 µM; in assay [2], 8.31 µM; in assay [3] it was 0.575 µM; in assay [4], 5.65 µM; in assay [5], 5.96 µM; in assay [6], 10.9 µM. Further, the GI50 in [7] is 3.84 µM; in [8], 12.7 µM; in assay [9], 3.54 µM. Moreover, the TGI in assay [1] was greater than 100 µM; in [2], greater than 100 µM; in assay [3], 25.6 µM; in [4], 25.2 µM; in assay [5], 48.8 µM; in assay [6], greater than 100 µM. Besides, the concentration for total growth inhibition (TGI) in [7] was greater than 100 µM; in [8] it was greater than 100 µM; in assay [9] it was 48.6 µM.

For `CCC1=C[C@H]2CN(CCc3c([nH]c4ccccc34)[C@@](C(=O)OC)(c3cc4c(cc3OC)N(C)[C@H]3[C@@](O)(C(=O)OC)[C@H](OC(C)=O)[C@]5(CC)[C@@H]6C[C@@H]6CN6CC[C@]43[C@@H]65)C2)C1`, the GI50 in [1] is 0.0229 µM; in assay [2], 0.084 µM; in assay [10], 0.249 µM; in assay [4] it was 0.0315 µM; in assay [5], 0.0211 µM; in assay [6], 0.054 µM. Moreover, the values for the 50% growth inhibitory concentration (GI50) in [7], in assay [8] and in assay [9] were 0.0131 µM, 0.0864 µM and 0.109 µM, respectively. In addition, the total growth inhibition concentration (TGI) is 3.4 µM in [1]; 3.07 µM in [2]; 5.82 µM in [10]; 3.07 µM in assay [4]; 5.12 µM in [5]; 0.179 µM in assay [6]. Also, the TGI in assay [7] worked out at 3.61 µM; in assay [8], 1.88 µM; in [9], 1.76 µM.

In the case of `COc1ccc(/C=C/C(=O)c2ccc(NC(=O)CSc3nnc(-c4cc(OC)c(OC)c(OC)c4)o3)cc2)cc1`, the GI50 in assay [1] was 0.32 µM; in assay [2], 1.88 µM; in [10], 1.68 µM; in [4] it was 1.7 µM; in assay [5], 1.73 µM; in assay [6] it was 1.64 µM. The GI50 in assay [7] was 1.27 µM; in assay [8], 1.82 µM; in [9], 1.93 µM. In addition, the TGI was 1.28 µM in assay [1]; 3.65 µM in [2]; 3.45 µM in assay [10]; 3.36 µM in [4]; 3.43 µM in [5]; 3.03 µM in assay [6]. Also, the TGI in assay [7] was determined as 3.68 µM; in assay [8], 3.5 µM; in assay [9] it was 4.23 µM.

Regarding `COc1ccc2oc(-c3ccc(Cl)cc3)c(N3CCN(C)CC3)c2c1`, the GI50 is 1.61 µM in [1]; 2.02 µM in assay [2]; 1.57 µM in assay [3]; 1.75 µM in assay [4]; 1.73 µM in assay [5]; 1.78 µM in assay [6]. The GI50 was 1.7 µM in [7], 1.64 µM in assay [8] and 0.37 µM in [9]. In addition, the TGI is 3.07 µM in assay [1]; 4.13 µM in assay [2]; 3.27 µM in assay [3]; 3.42 µM in assay [4]; 3.44 µM in [5]; 3.37 µM in assay [6]. For the same compound, the TGI in [7] came out at 3.5 µM; in assay [8], 3.27 µM; in [9], 2.78 µM.

With `COc1ccc2c(c1)N(CCC1CCCCN1C)c1ccccc1S2` (centres undefined), the TGI in assay [1] came out at 25.9 µM; in assay [3] it was 21.5 µM; in assay [10], 33.7 µM; in assay [4] it was 29.5 µM; in assay [5], 25.2 µM; in [6], 74.4 µM. For the same compound, the TGI was determined as 24.5 µM in assay [7], 23.6 µM in assay [8] and 22.6 µM in assay [9].

With `Cn1c2ccccc2c(=S)c2cc(NC(=O)CCCCC(=O)Nc3ccc4c(c3)c(=S)c3ccccc3n4C)ccc21`, the TGI in assay [1], in assay [2], in assay [3], in assay [4], in assay [5] and in assay [6] was greater than 100 µM throughout. Further, the TGI in [7], in assay [8] and in assay [9] was greater than 100 µM in each case.
